Consider one molecule from patent publication US9808530B2, “Composition of tiacumicin compounds” (Astellas Pharma Europe Ltd., priority 2013, dated 2017).

SMILES strings stand for the structures.

The nature of series [1]: Storage stability of fidaxomicin with a sugar in a ratio of 1:9. In kind it is physicochemical. As to conditions: glass bottle. The protocol: Fidaxomicin and a sugar, selected from the group consisting of D-mannitol, erythritol, isomalt and trehalose, in a ratio of 1:9, were transferred into a glass bottle and stored at 5° C. during 10 days, 70° C. during 9 days and 40° C./75% RH during 1 month, respectively. In the presence of each sugar the degradation of fidaxomicin increased when stored at 70° C. during 9 days. […] (see Table 7).

Series [2] in a line: Foaming property of fidaxomicin suspensions in water (tube shaken, foaming checked). As to conditions: 400 mg fidaxomicin in 10 mL distilled water; immediately after preparation and 1 hour after preparation. In kind it is physicochemical. The method, then:
To 400 mg of fidaxomicin was added 10 mL of distilled water in a tube. The mixture was shaken and allowed to stand.
Hydroxypropylcellulose (HPC-L (middle viscosity grade) and HPC-SSL (low viscosity grade) respectively), in a concentration of 0.3 and 0.6 w/v % respectively, was added to 5 mL of distilled water in a tube which contained 0 and 200 mg respectively of fidaxomicin. Each mixture was shaken and allowed to stand.
Xanthan gum in a concentration of 0.2% w/v was added to 5 mL of distilled water in a tube, which contained 0 and 200 mg respectively of fidaxomicin. Each mixture was shaken and allowed to stand.
An amount of the granulate corresponding to 200 mg fidaxomicin was weighed into a tube and 5 ml, of water was added. The tube was vigorously shaken for about 1 min. Foaming of the suspension was not observed.
An amount of each of the granulates OS-5-OS-9, corresponding to 200 mg fidaxomicin, was weighed into a tube and 5 mL of water was added. Further, suspensions OS-10 and OS-11 were prepared by addition of 2.5 mg and 5.0 mg respectively of xanthan gum to a suspension with composition OS-5. Each tube was vigorously shaken for about 1 min. In none of the suspensions foaming was observed.
Each of the granulate compositions OS-1, OS-2 and OS-3 was weighed into a tube, water was added and the tubes were vigorously shaken for about 1 minute. […]

The conditions of series [3]: low solubility, low permeability; cited from earlier work.
The conditions of series [4]: oral administration; cited from earlier work.

With `CCc1c(Cl)c(O)c(Cl)c(O)c1C(=O)O[C@H]1[C@H](O)[C@H](OC)[C@H](OC/C2=C\C=C\C[C@H](O)/C(C)=C/[C@H](CC)[C@@H](O[C@@H]3OC(C)(C)[C@@H](OC(=O)C(C)C)[C@H](O)[C@@H]3O)/C(C)=C/C(C)=C/C[C@@H]([C@@H](C)O)OC2=O)O[C@@H]1C` [fidaxomicin, 3-[[[6-deoxy-4-O-(3,5-dichloro-2-ethyl-4,6-dihydroxybenzoyl)-2-O-methyl-β-D-mannopyranosyl]oxy]methyl]-12(R)-[[6-deoxy-5-C-methyl-4-O-(2-methyl-1-oxopropyl)-β-D-lyxo-hexopyranosyl]oxy]-11(S)-ethyl-8(S)-hydroxy-18(S)-(1(R)-hydroxyethyl)-9,13,15-trimethyloxacyclooctadeca-3,5,9,13,15-pentaen-2-one], the “Total related substances (%)” value in series [1] (5° C./10 days) was determined as 1.91%; in series [1] (70° C./9 days), 5.10%. In addition, the “foaming property on contact with water” value in series [2] is “intrinsically foaming property”. In addition, the BCS class entry in series [3] is recorded as “BCS Class IV”. For the same molecule, the “absorption from the intestinal tract” value in series [4] is given as “poorly absorbed”.
